The results in this text go back to ChEMBL document CHEMBL2424622, “Development of amino-pyrimidine inhibitors of c-Jun N-terminal kinase (JNK): kinase profiling guided optimization of a 1,2,3-benzotriazole lead” (Bioorg Med Chem Lett, 2013).

Each structure is given as a SMILES string. Residue numbers refer to the chain shown, from its start.

The inhibition is how much of the control response was suppressed.

Test [1] has as its target Mitogen-activated protein kinase kinase kinase 9 (Homo sapiens) (UniProt P80192). As to the kind of experiment: Competitive binding affinity to MLK1 (unknown origin) at 10 uM in presence of ATP relative to control.
In test [2] the test system is T1, Receptor-type tyrosine-protein kinase FLT3 (Homo sapiens), P36888 [N841I].
T1 sequence (whole entry): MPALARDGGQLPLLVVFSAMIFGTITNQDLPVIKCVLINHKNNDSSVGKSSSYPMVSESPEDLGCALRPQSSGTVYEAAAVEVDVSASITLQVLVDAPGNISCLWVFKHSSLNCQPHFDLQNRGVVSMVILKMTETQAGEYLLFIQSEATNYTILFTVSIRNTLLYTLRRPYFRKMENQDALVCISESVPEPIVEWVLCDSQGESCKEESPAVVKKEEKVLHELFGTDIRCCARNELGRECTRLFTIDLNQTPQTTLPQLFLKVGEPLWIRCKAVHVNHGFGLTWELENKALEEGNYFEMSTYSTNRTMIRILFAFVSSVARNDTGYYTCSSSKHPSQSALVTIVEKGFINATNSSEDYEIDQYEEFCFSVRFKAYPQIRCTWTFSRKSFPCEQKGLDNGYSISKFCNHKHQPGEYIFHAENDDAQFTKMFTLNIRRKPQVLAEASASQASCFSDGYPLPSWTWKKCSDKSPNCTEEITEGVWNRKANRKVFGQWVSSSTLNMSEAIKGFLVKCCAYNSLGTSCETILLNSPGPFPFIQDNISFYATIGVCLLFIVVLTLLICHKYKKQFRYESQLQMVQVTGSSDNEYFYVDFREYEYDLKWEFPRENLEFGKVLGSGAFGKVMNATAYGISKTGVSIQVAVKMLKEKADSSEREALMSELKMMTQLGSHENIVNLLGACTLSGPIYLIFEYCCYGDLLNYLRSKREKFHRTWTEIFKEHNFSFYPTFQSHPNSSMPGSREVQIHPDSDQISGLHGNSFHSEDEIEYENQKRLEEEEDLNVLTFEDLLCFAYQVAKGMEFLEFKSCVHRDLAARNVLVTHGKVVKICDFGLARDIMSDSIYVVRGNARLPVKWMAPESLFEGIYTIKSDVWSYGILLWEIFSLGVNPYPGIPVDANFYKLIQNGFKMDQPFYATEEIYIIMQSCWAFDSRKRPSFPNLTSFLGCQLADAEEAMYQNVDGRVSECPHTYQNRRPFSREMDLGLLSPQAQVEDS
As to the kind of experiment: Competitive binding affinity to FLT3 N841I mutant (unknown origin) at 10 uM in presence of ATP relative to control.

The test system of test [3] is T2, Receptor-type tyrosine-protein kinase FLT3 (Homo sapiens), P36888 [D835Y].
T2 sequence (whole entry): T1 sequence (whole entry) with D835Y, I841N
Nature of the test: Competitive binding affinity to FLT3 D835Y mutant (unknown origin) at 10 uM in presence of ATP relative to control.

Test [4] has as its target Phosphatidylinositol 4,5-bisphosphate 3-kinase catalytic subunit alpha isoform (Homo sapiens) (UniProt P42336). Nature of the test: Competitive binding affinity to PIK3CA (unknown origin) at 10 uM in presence of ATP relative to control.
Test [5] deals with T3, Serine/threonine-protein kinase BRSK2 (Homo sapiens) (UniProt Q8IWQ3).
T3 sequence (whole entry): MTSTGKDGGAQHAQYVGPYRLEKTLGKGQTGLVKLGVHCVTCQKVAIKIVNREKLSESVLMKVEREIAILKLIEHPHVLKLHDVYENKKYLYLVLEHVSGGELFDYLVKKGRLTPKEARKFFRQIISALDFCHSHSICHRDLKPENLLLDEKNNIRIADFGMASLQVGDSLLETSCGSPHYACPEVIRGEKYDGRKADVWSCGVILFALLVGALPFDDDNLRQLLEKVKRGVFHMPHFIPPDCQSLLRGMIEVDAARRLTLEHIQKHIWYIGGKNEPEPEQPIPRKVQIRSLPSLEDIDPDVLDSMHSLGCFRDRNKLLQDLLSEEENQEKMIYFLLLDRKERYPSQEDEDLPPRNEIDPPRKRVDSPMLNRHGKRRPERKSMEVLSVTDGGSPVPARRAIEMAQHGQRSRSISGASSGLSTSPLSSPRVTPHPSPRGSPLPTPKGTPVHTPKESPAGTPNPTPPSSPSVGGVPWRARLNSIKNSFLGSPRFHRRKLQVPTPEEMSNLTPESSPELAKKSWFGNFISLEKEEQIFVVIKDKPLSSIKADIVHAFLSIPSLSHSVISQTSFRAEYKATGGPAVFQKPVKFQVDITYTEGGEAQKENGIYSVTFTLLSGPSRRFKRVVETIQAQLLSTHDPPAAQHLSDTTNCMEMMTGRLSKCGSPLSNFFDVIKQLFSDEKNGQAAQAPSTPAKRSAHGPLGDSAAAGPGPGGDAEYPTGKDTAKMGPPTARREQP
Nature of the test: Competitive binding affinity to BRSK2 (unknown origin) at 10 uM in presence of ATP relative to control.

Test [6] deals with Myosin light chain kinase, smooth muscle (Homo sapiens) (UniProt Q15746). As to the kind of experiment: Competitive binding affinity to MYLK (unknown origin) at 10 uM in presence of ATP relative to control.
Chain of Myosin light chain kinase, smooth muscle (Homo sapiens) (Q15746 whole entry): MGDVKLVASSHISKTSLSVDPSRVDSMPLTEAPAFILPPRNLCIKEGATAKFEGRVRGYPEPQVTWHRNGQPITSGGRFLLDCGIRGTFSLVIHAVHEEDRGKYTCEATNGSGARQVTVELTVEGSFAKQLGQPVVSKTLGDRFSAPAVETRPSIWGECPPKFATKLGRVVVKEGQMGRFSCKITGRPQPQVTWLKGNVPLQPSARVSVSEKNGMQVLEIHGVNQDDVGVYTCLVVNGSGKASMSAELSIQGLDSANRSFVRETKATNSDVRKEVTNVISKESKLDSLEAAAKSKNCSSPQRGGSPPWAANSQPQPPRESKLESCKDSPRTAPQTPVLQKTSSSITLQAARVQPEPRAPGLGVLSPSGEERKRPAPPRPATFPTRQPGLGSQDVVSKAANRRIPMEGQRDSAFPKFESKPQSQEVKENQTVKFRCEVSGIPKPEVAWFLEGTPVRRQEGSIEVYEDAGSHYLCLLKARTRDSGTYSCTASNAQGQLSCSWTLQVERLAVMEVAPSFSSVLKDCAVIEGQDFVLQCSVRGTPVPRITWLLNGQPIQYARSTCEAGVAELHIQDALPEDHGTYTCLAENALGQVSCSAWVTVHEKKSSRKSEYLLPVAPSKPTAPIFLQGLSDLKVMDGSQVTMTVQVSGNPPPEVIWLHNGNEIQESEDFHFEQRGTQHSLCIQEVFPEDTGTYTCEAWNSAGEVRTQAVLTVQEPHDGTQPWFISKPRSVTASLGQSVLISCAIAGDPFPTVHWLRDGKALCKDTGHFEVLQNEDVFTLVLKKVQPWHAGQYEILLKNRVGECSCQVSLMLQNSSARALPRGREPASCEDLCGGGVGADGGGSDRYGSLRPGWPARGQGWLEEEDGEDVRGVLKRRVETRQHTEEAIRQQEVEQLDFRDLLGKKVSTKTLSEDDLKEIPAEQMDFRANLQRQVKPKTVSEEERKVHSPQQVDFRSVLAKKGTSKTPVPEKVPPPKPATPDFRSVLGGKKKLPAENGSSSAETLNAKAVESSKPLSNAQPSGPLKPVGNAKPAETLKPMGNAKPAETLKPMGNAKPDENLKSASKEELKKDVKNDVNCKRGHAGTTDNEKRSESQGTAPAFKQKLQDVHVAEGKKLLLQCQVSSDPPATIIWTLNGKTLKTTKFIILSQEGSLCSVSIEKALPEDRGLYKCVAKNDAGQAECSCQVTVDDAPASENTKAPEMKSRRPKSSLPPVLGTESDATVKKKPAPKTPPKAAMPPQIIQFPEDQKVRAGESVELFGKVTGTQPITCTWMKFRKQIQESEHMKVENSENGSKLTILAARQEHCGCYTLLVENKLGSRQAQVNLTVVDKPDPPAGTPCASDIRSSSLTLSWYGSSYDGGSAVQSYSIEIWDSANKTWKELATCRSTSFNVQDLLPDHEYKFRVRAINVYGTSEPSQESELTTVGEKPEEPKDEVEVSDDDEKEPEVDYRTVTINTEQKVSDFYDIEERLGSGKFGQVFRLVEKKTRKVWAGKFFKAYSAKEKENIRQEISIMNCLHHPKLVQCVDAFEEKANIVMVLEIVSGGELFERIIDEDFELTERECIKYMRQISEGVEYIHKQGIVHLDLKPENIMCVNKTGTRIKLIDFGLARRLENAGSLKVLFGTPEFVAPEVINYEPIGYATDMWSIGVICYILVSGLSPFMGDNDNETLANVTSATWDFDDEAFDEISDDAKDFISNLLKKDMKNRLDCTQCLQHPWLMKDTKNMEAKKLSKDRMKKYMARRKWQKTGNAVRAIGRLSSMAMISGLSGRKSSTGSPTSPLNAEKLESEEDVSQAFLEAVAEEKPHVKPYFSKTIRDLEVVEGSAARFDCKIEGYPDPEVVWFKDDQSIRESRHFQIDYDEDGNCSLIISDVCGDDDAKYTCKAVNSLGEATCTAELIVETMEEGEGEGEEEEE

Chain of Mitogen-activated protein kinase kinase kinase 9 (Homo sapiens) (P80192 whole entry, looked up): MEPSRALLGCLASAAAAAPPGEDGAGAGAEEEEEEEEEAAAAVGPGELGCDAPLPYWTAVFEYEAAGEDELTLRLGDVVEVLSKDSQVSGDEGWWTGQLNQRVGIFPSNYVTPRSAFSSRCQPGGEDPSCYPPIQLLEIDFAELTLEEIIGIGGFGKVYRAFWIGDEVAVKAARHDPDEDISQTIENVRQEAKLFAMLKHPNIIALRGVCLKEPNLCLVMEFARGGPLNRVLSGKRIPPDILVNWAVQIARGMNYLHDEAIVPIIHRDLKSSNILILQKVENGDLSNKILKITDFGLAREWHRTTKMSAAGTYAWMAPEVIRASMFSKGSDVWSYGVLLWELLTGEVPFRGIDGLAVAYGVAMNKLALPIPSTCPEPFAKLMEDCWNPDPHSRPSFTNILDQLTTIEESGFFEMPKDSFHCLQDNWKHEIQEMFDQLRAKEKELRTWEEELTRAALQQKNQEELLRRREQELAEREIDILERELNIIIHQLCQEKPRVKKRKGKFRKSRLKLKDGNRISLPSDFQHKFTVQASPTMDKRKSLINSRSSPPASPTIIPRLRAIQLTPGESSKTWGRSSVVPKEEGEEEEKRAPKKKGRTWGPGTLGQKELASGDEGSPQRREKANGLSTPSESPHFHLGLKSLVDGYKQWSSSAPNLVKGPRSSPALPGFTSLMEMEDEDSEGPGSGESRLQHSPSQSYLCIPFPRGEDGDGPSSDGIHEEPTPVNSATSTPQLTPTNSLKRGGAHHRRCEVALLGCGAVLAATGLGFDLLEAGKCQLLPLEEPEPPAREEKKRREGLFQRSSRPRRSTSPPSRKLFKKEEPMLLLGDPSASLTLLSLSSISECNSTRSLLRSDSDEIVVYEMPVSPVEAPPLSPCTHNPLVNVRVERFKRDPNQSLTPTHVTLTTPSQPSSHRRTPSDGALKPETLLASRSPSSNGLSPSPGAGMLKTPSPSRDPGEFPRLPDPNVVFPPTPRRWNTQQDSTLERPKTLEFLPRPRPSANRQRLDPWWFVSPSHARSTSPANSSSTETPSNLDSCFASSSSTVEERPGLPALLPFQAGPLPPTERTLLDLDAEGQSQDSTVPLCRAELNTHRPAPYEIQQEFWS
Chain of Phosphatidylinositol 4,5-bisphosphate 3-kinase catalytic subunit alpha isoform (Homo sapiens) (P42336 whole entry, canonical isoform): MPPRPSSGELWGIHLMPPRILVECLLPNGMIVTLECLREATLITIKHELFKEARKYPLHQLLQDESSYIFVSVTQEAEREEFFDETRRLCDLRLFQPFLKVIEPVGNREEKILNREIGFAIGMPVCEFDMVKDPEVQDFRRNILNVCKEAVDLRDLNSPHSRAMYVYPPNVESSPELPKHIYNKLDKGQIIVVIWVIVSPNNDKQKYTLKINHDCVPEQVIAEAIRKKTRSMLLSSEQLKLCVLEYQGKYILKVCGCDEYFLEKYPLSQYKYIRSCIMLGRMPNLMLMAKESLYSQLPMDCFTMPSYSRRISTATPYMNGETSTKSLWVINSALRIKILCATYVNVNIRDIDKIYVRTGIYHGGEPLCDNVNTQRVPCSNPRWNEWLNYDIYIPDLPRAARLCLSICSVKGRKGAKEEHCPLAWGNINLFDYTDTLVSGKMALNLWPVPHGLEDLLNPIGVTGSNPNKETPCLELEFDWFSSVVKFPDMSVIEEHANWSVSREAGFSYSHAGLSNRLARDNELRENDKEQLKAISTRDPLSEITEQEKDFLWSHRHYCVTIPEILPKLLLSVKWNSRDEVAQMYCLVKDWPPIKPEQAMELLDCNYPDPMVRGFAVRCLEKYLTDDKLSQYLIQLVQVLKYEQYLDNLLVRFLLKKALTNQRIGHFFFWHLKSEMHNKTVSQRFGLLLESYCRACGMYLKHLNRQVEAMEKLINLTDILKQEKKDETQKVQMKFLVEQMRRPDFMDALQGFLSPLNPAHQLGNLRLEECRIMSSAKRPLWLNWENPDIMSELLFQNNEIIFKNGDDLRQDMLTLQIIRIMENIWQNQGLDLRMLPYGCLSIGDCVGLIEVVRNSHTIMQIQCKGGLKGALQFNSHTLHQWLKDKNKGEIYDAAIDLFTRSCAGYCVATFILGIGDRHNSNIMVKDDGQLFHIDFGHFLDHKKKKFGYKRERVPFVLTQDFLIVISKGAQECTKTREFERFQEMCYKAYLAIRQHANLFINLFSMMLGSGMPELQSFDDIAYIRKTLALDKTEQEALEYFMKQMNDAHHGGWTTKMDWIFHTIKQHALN

Consider `O[C@H]1CC[C@H](Nc2nccc(-n3ccc4ccccc43)n2)CC1`, for which the inhibition in test [1], in test [2], in test [3], in test [4], in test [5] and in test [6] was less than 50% in each case.

With `O[C@H]1CC[C@H](Nc2nccc(-n3ncc4ccccc43)n2)CC1`, the inhibition is less than 50% in test [1]; 97% in test [2]; 100% in test [3]; 78% in test [4]; less than 50% in test [5]; 74% in test [6].

Regarding `O[C@H]1CC[C@H](Nc2nccc(-c3n[nH]c4ccccc34)n2)CC1`, the values for the inhibition in test [2], in test [3] and in test [5] were 100%, 100% and 69%, respectively.

As for `O[C@H]1CC[C@H](Nc2nccc(-n3nnc4ccccc43)n2)CC1`, the inhibition was less than 50% in test [1]; 98% in test [2]; 99% in test [3]; 84% in test [4]; less than 50% in test [5]; 94% in test [6].
